Measurements published in patent US20200172913A1, “PEPTIDES AND NANOPARTICLES FOR INTRACELLULAR DELIVERY OF VIRUS” (priority 2017, published 2020).
Where no end group is shown, it is not given here. PEG = not defined here; βAla = NCCC(=O)O

Legend:
293 T cells = assay: AAV-2/PEP-1 peptide particle stability (serum, heparin), GFP expressing cells by flow cytometry; assay type: cell-based; details: for effect of the modification on AAV/PEP-1 complex stability in serum: high concentration of serum; for reduction of the level of GFP expressing cells (efficacy): particles incubated 1 hour in 50% serum, 50 μM peptide, AAV-2 MOI of 300; for increase of efficacy: standard conditions (no serum, no heparin), vs unmodified PEP-1
Experimental: Stock solutions of peptides were prepared at 2 mg/mL in distilled water or 5% DMSO and sonicated for 10 min in a water bath sonicator then diluted just before use. AAV-2 encoding green fluorescent protein at MOI of 300 was pre-incubated in low salt medium with PEP-1 peptides containing either a specific targeting motif, a PEG or Dopamine moiety at a concentration of 50 μM for 30 min. The AAV-2/peptide particle stability was evaluated in different conditions. Particles were incubated for 1 hour in DMEM medium containing 10, 20 to 50% serum (FSC) or in the presence of heparin (5 and 10 μg). Then AAV alone or PEP-1/AAV complexes were added to cultured 293 T cells in a 24 well plate format. Cells were treated with either free AAV-2 or Peptide/AAV-2 complexes for 4 h, and then the medium was replaced with fresh medium. Viral mediated transgene expression was monitored 2 days post-infection. GFP expressing cells were detected by flow cytometry.

HepG2 cells [1] = assay: AAV-5-GFP transduction with CPPs, flow cytometry; assay type: cell-based, human; details: 200 μM CPP; for cells expressing GFP: AAV-5 MOI of 500, HepG2, 5% in the absence of CPP; for increase of AAV-5 efficiency: MOI of 500, HepG2
Experimental: (§1) In this example different AAV serotypes including AAV 1, AAV2, AAV5, AAV6, AAV8 and AAV9 were tested against human hepatocytes (HepG2) and human neuronal cells (HCN2) in the presence or in the absence of CPPs including ADGN-103a, ADGN-103b, ADGN-100, ADGN-109, ADGN-106, PEP-1, PEP-2, CADY, and TAT-HA2.
(§2) AAV-1, AAV-2, AAV-5, and AAV-6 viruses encoding green fluorescent protein were obtained from Cell Biolabs Inc and AAV-8 from Vector Biolabs. Stock solutions of virus were obtained at 1χ10^13 GC/ml in PBS/0.01% and diluted 50-fold to 2×10^11 GC/ml before use.
(§3) AAV-1, AAV-2, AAV-5, and AAV6 encoding green fluorescent protein were used at low MOI of 500 (1-2×10^7 PFU) and AAV-8 at MOI of 1000 (2-4×10^7 PFU). HepG2 and HCN2 cells (1 10^6 cells per well) were cultured in a 24 well plate culture dish format. For MOI of 1000, 5 μl of AAV virus diluted solutions were preincubated in PBS with increasing concentration of CPPs ranging from 0.1 to 200 μM for 30 min. For MOI of 500, 2.5 μl of AAV virus diluted solutions were preincubated in PBS with increasing concentration of CPPs ranging from 0.1 to 200 μM for 30 min. 200 μl of AAV or CPP/AAV complex solutions were added to cultured cells (1×10^6 cells per well). Cells are treated with either free AAV or CPP/AAV complexes for 4 h. and then the medium is replaced with fresh medium.
(§4) Viral mediated transgene expression was monitored by flow cytomety 2 days post-infection in HepG2 and Human neuronal HCN2. The percentage of GFP expressing cells were detected by flow cytometry and the increase of AAV infectivity was calculated based on the number of GFP-positive cells. Results are reported in FIGS. 5A-5D, 6A-6D, 7A-7D, 8A-8D, and 9A-9D.

HCN2 cells [2] = assay: AAV-5-GFP transduction with CPPs, flow cytometry; assay type: cell-based, human; details: 200 μM CPP; for cells expressing GFP: AAV-5 MOI of 500, HCN2, 5% in the absence of CPP; for increase of AAV-5 efficiency: MOI of 500, HCN2
Experimental: as §1, §2, §3, §4

HepG2 cells [3] = assay: AAV-6-GFP transduction with CPPs, flow cytometry; assay type: cell-based, human; details: 200 μM CPP; for cells expressing GFP: AAV-6 MOI of 500, HepG2, 5% in the absence of CPP; for increase of AAV-6 efficiency: MOI of 500, HepG2
Experimental: as §1, §2, §3, §4

HCN2 cells [4] = assay: AAV-6-GFP transduction with CPPs, flow cytometry; assay type: cell-based, human; details: for increase of AAV-6 efficiency: 200 μM CPP, MOI of 500, HCN2; for cells expressing GFP: 200 μM of CPP, AAV-6 MOI of 500, HCN2, 4% in the absence of CPP
Experimental: as §1, §2, §3, §4

HepG2 cells [5] = assay: AAV-8-GFP transduction with CPPs, flow cytometry; assay type: cell-based, human; details: 200 μM CPP, AAV-8 MOI of 1000, HepG2; 5% in the absence of CPP
Experimental: as §1, §2, §3, §4

HCN2 cells [6] = assay: AAV-8-GFP transduction with CPPs, flow cytometry; assay type: cell-based, human; details: 200 μM CPP, AAV-8 MOI of 1000, HCN2; 5% in the absence of CPP
Experimental: as §1, §2, §3, §4

HepG2 cells [7] = assay: AAV-2-GFP transduction with CPPs, flow cytometry; assay type: cell-based, human; details: 200 μM CPP; for cells expressing GFP: AAV-2 MOI of 500, HepG2, 4% in the absence of CPP; for increase of AAV-2 efficiency: MOI of 500, HepG2
Experimental: as §1, §2, §3, §4

HCN2 cells [8] = assay: AAV-2-GFP transduction with CPPs, flow cytometry; assay type: cell-based, human; details: 200 μM CPP; for cells expressing GFP: AAV-2 MOI of 500, HCN2, 4% in the absence of CPP; for increase of AAV-2 efficiency: MOI of 500, HCN2
Experimental: as §1, §2, §3, §4

HepG2 cells [9] = assay: AAV-1-GFP transduction with CPPs, flow cytometry; assay type: cell-based, human; details: 200 μM CPP; for cells expressing GFP: AAV-1 MOI of 500, HepG2, 5% in the absence of CPP
Experimental: as §1, §2, §3, §4

HCN2 cells [10] = assay: AAV-1-GFP transduction with CPPs, flow cytometry; assay type: cell-based, human; details: 200 μM CPP; for cells expressing GFP: AAV-1 MOI of 500, HCN2, 5% in the absence of CPP; for increase of AAV-1 efficiency: MOI of 500, HCN2
Experimental: as §1, §2, §3, §4

HepG2 and HCN2 cells [11] = assay: AAV-2-GFP transduction with CPPs, statements for both cell lines; assay type: cell-based, human; details: for impact on AAV-2 infectivity: 1 μM concentration, both cell lines; for share of the final improvement obtained with 200 μM: 10 μM concentration of CPP, AAV-2, both cell lines
Experimental: as §1, §2, §3, §4

HepG2 and HCN2 cells [12] = assay: AAV-1-GFP transduction with CPPs, statements for both cell lines; assay type: cell-based, human; details: for impact on AAV-1 infectivity: 1 μM concentration, both cell lines; for share of the final improvement obtained with 200 μM: 10 μM concentration of CPP, AAV-1, both cell lines
Experimental: as §1, §2, §3, §4

HepG2 and HCN2 cells [13] = assay: AAV-8-GFP transduction with CPPs, statements for both cell lines; assay type: cell-based, human; details: for impact on AAV-8 infectivity: 1 μM concentration, both cell lines; for share of the final improvement obtained at 200 μM: 10 μM concentration, AAV-8, both cell lines
Experimental: as §1, §2, §3, §4

HepG2 and HCN2 cells [14] = assay: AAV-5-GFP transduction with CPPs, statements for both cell lines; assay type: cell-based, human; details: for impact on AAV-5 infectivity: 1 μM concentration, both cell lines; for share of the final improvement obtained at 200 μM: 10 μM concentration, AAV-5, both cell lines
Experimental: as §1, §2, §3, §4

HepG2 and HCN2 cells [15] = assay: AAV-6-GFP transduction with CPPs, statements for both cell lines; assay type: cell-based, human; details: for impact on AAV-6 infectivity: 1 μM concentration, both cell lines; for share of the final improvement obtained at 200 μM: 10 μM concentration, AAV-6, both cell lines
Experimental: as §1, §2, §3, §4

## DOPA-GGGG-KETWWETWWTEWSQPKKKRKV (GGGGKETWWETWWTEWSQPKKKRKV; not fully specified (N-terminus)) [PEP-1-DOPA, Dopamine added to the N-terminus of PEP-1 using a Gly4 linker]
293 T cells
  effect of the modification on AAV/PEP-1 complex stability in serum: stabilized
  reduction of the level of GFP expressing cells (efficacy): 30%
  increase of efficacy: 40%

## GLWRALWRLLRSLWRLLWKV [CADY, reference compound]
HepG2 cells [1]
  cells expressing GFP: 11%
  increase of AAV-5 efficiency: 3 fold
HCN2 cells [2]
  cells expressing GFP: 10%
  increase of AAV-5 efficiency: 2 fold
HepG2 cells [3]
  cells expressing GFP: 29%
HCN2 cells [4]
  increase of AAV-6 efficiency: 3 fold
  cells expressing GFP: 18%
HepG2 cells [5]
  cells expressing GFP: 15%
HCN2 cells [6]
  cells expressing GFP: 12%
HepG2 cells [7]
  cells expressing GFP: 23%
  increase of AAV-2 efficiency: 5 fold
HCN2 cells [8]
  cells expressing GFP: 20%
  increase of AAV-2 efficiency: 3 fold
HepG2 cells [9]
  cells expressing GFP: 27%
HCN2 cells [10]
  cells expressing GFP: 22%
  increase of AAV-1 efficiency: 3 fold

## GYVSK-GGGGSKETWWETWWTEWSQPKKKRKV (Ac-GYVSKGGGGSKETWWETWWTEWSQPKKKRKV-cysteamide) [PEP-1 T1]
293 T cells
  effect of the modification on AAV/PEP-1 complex stability in serum: significantly protected
  reduction of the level of GFP expressing cells (efficacy): 27%

## KETWWETWWTEWSQPKKKRKVGGGG-GYVSK (Ac-KETWWETWWTEWSQPKKKRKVGGGGGYVSK-cysteamide) [PEP-1 T2]
293 T cells
  effect of the modification on AAV/PEP-1 complex stability in serum: only a moderate effect

## PEG-βAKETWWETWWTEWSQPKKKRKV ({PEG-βAla}-KETWWETWWTEWSQPKKKRKV; reading uncertain) [PEP-1-PEG, PEP-1 mono-PEGylated with 5 kDa PEG at the N-terminal beta Alanine]
293 T cells
  effect of the modification on AAV/PEP-1 complex stability in serum: stabilized
  reduction of the level of GFP expressing cells (efficacy): 30%
  increase of efficacy: 40%

## βAKWFERWFREWPRKRR (not fully specified (residue 1, N-terminus); printed as βAKWFERWFREWPRKRR) [ADGN-103a]
HepG2 and HCN2 cells [11]
  impact on AAV-2 infectivity: significant impact
  share of the final improvement obtained with 200 μM: about 70%
HepG2 and HCN2 cells [12]
  impact on AAV-1 infectivity: significant impact
  share of the final improvement obtained with 200 μM: about 60%
HepG2 and HCN2 cells [13]
  impact on AAV-8 infectivity: significant impact
  share of the final improvement obtained at 200 μM: about 60%
HepG2 and HCN2 cells [14]
  impact on AAV-5 infectivity: significant impact
  share of the final improvement obtained at 200 μM: about 50%
HepG2 cells [1]
  cells expressing GFP: 60%
HCN2 cells [2]
  cells expressing GFP: 45%
HepG2 cells [3]
  cells expressing GFP: 94%
HCN2 cells [4]
  cells expressing GFP: 65%
HepG2 cells [5]
  cells expressing GFP: 52%
HCN2 cells [6]
  cells expressing GFP: 49%
HepG2 and HCN2 cells [15]
  impact on AAV-6 infectivity: significant impact
  share of the final improvement obtained at 200 μM: about 70%
HepG2 cells [7]
  cells expressing GFP: 98%
HCN2 cells [8]
  cells expressing GFP: 71%
HepG2 cells [9]
  cells expressing GFP: 76%
HCN2 cells [10]
  cells expressing GFP: 75%

## βAKWRSAGWRWRLWRVRSWSR (not fully specified (residue 1, N-terminus); printed as βAKWRSAGWRWRLWRVRSWSR) [ADGN-100]
HepG2 and HCN2 cells [11]
  impact on AAV-2 infectivity: significant impact
  share of the final improvement obtained with 200 μM: about 70%
HepG2 and HCN2 cells [12]
  impact on AAV-1 infectivity: significant impact
  share of the final improvement obtained with 200 μM: about 60%
HepG2 and HCN2 cells [13]
  impact on AAV-8 infectivity: significant impact
  share of the final improvement obtained at 200 μM: about 60%
HepG2 and HCN2 cells [14]
  impact on AAV-5 infectivity: significant impact
  share of the final improvement obtained at 200 μM: about 50%
HepG2 cells [1]
  cells expressing GFP: 39%
  increase of AAV-5 efficiency: 10 fold
HCN2 cells [2]
  cells expressing GFP: 22%
  increase of AAV-5 efficiency: 5 fold
HepG2 cells [3]
  cells expressing GFP: 59%
  increase of AAV-6 efficiency: 17 fold
HCN2 cells [4]
  increase of AAV-6 efficiency: 15 fold
  cells expressing GFP: 48%
HepG2 cells [5]
  cells expressing GFP: 26%
HCN2 cells [6]
  cells expressing GFP: 23%
HepG2 and HCN2 cells [15]
  impact on AAV-6 infectivity: significant impact
  share of the final improvement obtained at 200 μM: about 70%
HepG2 cells [7]
  cells expressing GFP: 57%
  increase of AAV-2 efficiency: 20 fold
HCN2 cells [8]
  cells expressing GFP: 59%
  increase of AAV-2 efficiency: 15 fold
HepG2 cells [9]
  cells expressing GFP: 50%
HepG2 cells [9]; MOI of 500, HepG2
  increase of AAV-1 efficiency: 13 fold
HCN2 cells [10]
  cells expressing GFP: 52%
  increase of AAV-1 efficiency: 12 fold

## βALWRALWRLWRSLWRLLWKA (not fully specified (residue 1, N-terminus); printed as βALWRALWRLWRSLWRLLWKA) [ADGN-106]
HCN2 cells [2]
  increase of AAV-5 efficiency: 4 fold
HepG2 cells [3]
  increase of AAV-6 efficiency: about 10 fold
HCN2 cells [4]
  increase of AAV-6 efficiency: 7 fold
HCN2 cells [8]
  increase of AAV-2 efficiency: 7 fold
HCN2 cells [10]
  increase of AAV-1 efficiency: 7 fold
